# From US20050215649A1, “Conjugated alphatic dialdehyde disinfecting and sterilizing compositions and methods of using the same” (priority 2004, published 2005)
# Where two headings read alike, the source gives them in different places.
# What was measured:
# Mycobacterium bovis BCG = format: cell-based; settings: for time within which biocidal: 0.5% 2-butenedial
# spores of B. subtilis = assay: AOAC Sporicidal Test, B. subtilis spores; format: cell-based; settings: pH 4, 20° C., 24 hours
# Experimental: (§1) In this example, a series of aqueous solutions containing from 2 to 0.5% of 2-butenedial, buffered at pH 4 with monopotassium hydrogen phosphate and acetic acid, were tested according to methods described in the AOAC Sporicidal Test to determine their effectiveness against spores of B. subtilis and C. sporogenes at 20° C. in 24 hours.
# spores of C. sporogenes = assay: AOAC Sporicidal Test, C. sporogenes spores; format: cell-based; settings: pH 4, 20° C., 24 hours
# Experimental: as §1
# [1] = Storage stability of solutions at 25° C., effect of pH; format: physicochemical
# Experimental: Solutions containing about 3% of 2-butenedial buffered to pH 3, 5 and 7 were stored at 25° C. for about 3 months to determine the effect of pH on the stability of the solutions.
# [2] = Storage stability of solutions at 0-5° C., pH 4; format: physicochemical; settings: pH 4, 0-5° C.
# Experimental: Solutions containing about 2.7% of 2-butenedial buffered to pH 4 were stored at 0-5° C. for about 3 months to determine the effect of storage temperature on the stability of the solutions.
# [3] = Use life stability at 25° C. for 14 days, effect of pH; format: physicochemical
# Experimental: Solutions containing 2% of 2-butenedial buffered to pH 2.5, 3.5 and 4.5 were aged at 25° C. for 14 days to determine the effect of pH on use life stability.
# Solubility in water = format: physicochemical
# From the text: 2-Butenedial is present in the composition, at use concentration, in amounts of between 0.5% and 1.0% by weight. Higher concentrations, e.g., up to 2%, or lower concentrations, e.g., above 0.25%, could be used if desired. The preferred concentration of 2-butenedial at use dilution is about 0.5% by weight. Higher concentrations of 2-butenedial may be used for shipping the composition to the point of use and the composition could then be diluted with water to the desired use concentration. The limit on the amount of 2-butenedial used in the concentrate composition is a function of the solubility of 2-butenedial in water, which is about 20% w/w. To achieve compositions with greater than 20% w/w, a water miscible co-solvent can be used. Typically, suitable co-solvents include low molecular weight alcohols and glycols. The optimum parameters for any given quantity to be sterilized or disinfected can be determined by routine experimentation using varying concentrations, treatment times, and temperatures as described herein.
# [4] = 0.5% (w/w) butenedial, penicylinders
# [5] = 1% (w/w) butenedial, penicylinders
# [6] = 2% (w/w) butenedial, penicylinders
structure (smiles),measurement,setting,value
"O=CC=CC=O [2-butenedial, 2-Butenedial]",time within which biocidal,"Mycobacterium bovis BCG; pH 4, 20° C.",≤ 30 min
same,time within which biocidal,"Mycobacterium bovis BCG; pH 5.5, 20° C.",≤ 30 min
same,Percent Reduction of Organisms,"Mycobacterium bovis BCG; 0.5% (w/w) butenedial, pH 4, 20° C., 5 min",>99.78%
same,Percent Reduction of Organisms,"Mycobacterium bovis BCG; 0.5% (w/w) butenedial, pH 4, 20° C., 15 min",>99.996%
same,Percent Reduction of Organisms,"Mycobacterium bovis BCG; 0.5% (w/w) butenedial, pH 4, 20° C., 30 min",>100%
same,Percent Reduction of Organisms,"Mycobacterium bovis BCG; 0.5% (w/w) butenedial, pH 4, 20° C., 60 min",>100%
same,Percent Reduction of Organisms,"Mycobacterium bovis BCG; 0.5% (w/w) butenedial, pH 5.5, 20° C., 5 min",83.5%
same,Percent Reduction of Organisms,"Mycobacterium bovis BCG; 0.5% (w/w) butenedial, pH 5.5, 20° C., 15 min",>99.996%
same,Percent Reduction of Organisms,"Mycobacterium bovis BCG; 0.5% (w/w) butenedial, pH 5.5, 20° C., 30 min",>100%
same,Percent Reduction of Organisms,"Mycobacterium bovis BCG; 0.5% (w/w) butenedial, pH 5.5, 20° C., 60 min",>100%
same,Percent Reduction of Organisms,"Mycobacterium bovis BCG; 1% (w/w) butenedial, pH 4, 20° C., 5 min",>99.97%
same,Percent Reduction of Organisms,"Mycobacterium bovis BCG; 1% (w/w) butenedial, pH 4, 20° C., 15 min",>99.997%
same,Percent Reduction of Organisms,"Mycobacterium bovis BCG; 1% (w/w) butenedial, pH 4, 20° C., 30 min",>100%
same,Percent Reduction of Organisms,"Mycobacterium bovis BCG; 1% (w/w) butenedial, pH 4, 20° C., 60 min",>100%
same,Percent Reduction of Organisms,"Mycobacterium bovis BCG; 1% (w/w) butenedial, pH 5.5, 20° C., 5 min",94.5%
same,Percent Reduction of Organisms,"Mycobacterium bovis BCG; 1% (w/w) butenedial, pH 5.5, 20° C., 15 min",>99.997%
same,Percent Reduction of Organisms,"Mycobacterium bovis BCG; 1% (w/w) butenedial, pH 5.5, 20° C., 30 min",>100%
same,Percent Reduction of Organisms,"Mycobacterium bovis BCG; 1% (w/w) butenedial, pH 5.5, 20° C., 60 min",>100%
same,Percent Reduction of Organisms,"Mycobacterium bovis BCG; 2% (w/w) butenedial, pH 4, 20° C., 5 min",>99.98%
same,Percent Reduction of Organisms,"Mycobacterium bovis BCG; 2% (w/w) butenedial, pH 4, 20° C., 15 min",>99.998%
same,Percent Reduction of Organisms,"Mycobacterium bovis BCG; 2% (w/w) butenedial, pH 4, 20° C., 30 min",>100%
same,Percent Reduction of Organisms,"Mycobacterium bovis BCG; 2% (w/w) butenedial, pH 4, 20° C., 60 min",>100%
same,Percent Reduction of Organisms,"Mycobacterium bovis BCG; 2% (w/w) butenedial, pH 5.5, 20° C., 5 min",95%
same,Percent Reduction of Organisms,"Mycobacterium bovis BCG; 2% (w/w) butenedial, pH 5.5, 20° C., 15 min",99.95%
same,Percent Reduction of Organisms,"Mycobacterium bovis BCG; 2% (w/w) butenedial, pH 5.5, 20° C., 30 min",>100%
same,Percent Reduction of Organisms,"Mycobacterium bovis BCG; 2% (w/w) butenedial, pH 5.5, 20° C., 60 min",>100%
same,minimum effective concentration,Mycobacterium bovis BCG; based on results on spores and tubercular bacteria,0.5%
same,Total No. of Positives(Failures/Total No. of Tests),spores of B. subtilis; [4],0/30
same,Total No. of Positives(Failures/Total No. of Tests),"spores of B. subtilis; 0.5% (w/w) butenedial, sutures",0/30
same,Total No. of Positives(Failures/Total No. of Tests),spores of B. subtilis; [5],0/30
same,Total No. of Positives(Failures/Total No. of Tests),"spores of B. subtilis; 1% (w/w) butenedial, sutures",0/30
same,Total No. of Positives(Failures/Total No. of Tests),spores of B. subtilis; [6],0/30
same,Total No. of Positives(Failures/Total No. of Tests),"spores of B. subtilis; 2% (w/w) butenedial, sutures",0/30
same,minimum effective concentration against spores,spores of B. subtilis,about 0.5%
same,Total No. of Positives(Failures/Total No. of Tests),spores of C. sporogenes; [4],1/30
same,Total No. of Positives(Failures/Total No. of Tests),"spores of C. sporogenes; 0.5% (w/w) butenedial, sutures",0/30
same,Total No. of Positives(Failures/Total No. of Tests),spores of C. sporogenes; [5],0/30
same,Total No. of Positives(Failures/Total No. of Tests),"spores of C. sporogenes; 1% (w/w) butenedial, sutures",0/30
same,Total No. of Positives(Failures/Total No. of Tests),spores of C. sporogenes; [6],0/30
same,Total No. of Positives(Failures/Total No. of Tests),"spores of C. sporogenes; 2% (w/w) butenedial, sutures",0/30
same,minimum effective concentration against spores,spores of C. sporogenes,about 0.5%
same,Percent (%) Butenedial,"[1]; pH 3, 25° C., storage time 0 months",2.94%
same,Percent (%) Butenedial,"[1]; pH 3, 25° C., storage time 1 month",2.4%
same,Percent (%) Butenedial,"[1]; pH 3, 25° C., storage time 2 months",1.77%
same,Percent (%) Butenedial,"[1]; pH 3, 25° C., storage time 3 months",0.95%
same,Percent (%) Butenedial,"[1]; pH 5, 25° C., storage time 0 months",2.94%
same,Percent (%) Butenedial,"[1]; pH 5, 25° C., storage time 1 month",1.06%
same,Percent (%) Butenedial,"[1]; pH 5, 25° C., storage time 2 months",0.55%
same,Percent (%) Butenedial,"[1]; pH 5, 25° C., storage time 3 months",0.13%
same,Percent (%) Butenedial,"[1]; pH 7, 25° C., storage time 0 months",2.94%
same,Percent (%) Butenedial,"[1]; pH 7, 25° C., storage time 1 month",0.12%
same,Percent (%) Butenedial,"[1]; pH 7, 25° C., storage time 2 months",0.09%
same,Percent (%) Butenedial,"[1]; pH 7, 25° C., storage time 3 months",0.06%
same,acceptable storage stability,"[1]; stored as one component at pH 3, 25° C.",about 3 months
same,% Butenedial,[2]; storage time 0 mo,2.72%
same,% Butenedial,[2]; storage time 1 mo,2.67%
same,% Butenedial,[2]; storage time 2 mo,2.68%
same,% Butenedial,[2]; storage time 3 mo,2.54%
same,acceptable use life stability,"[3]; 25° C., pH 2.5, 3.5 and 4.5, minimum effective concentration 0.5%",at least 14 days
same,Percent (%) Butenedial,"[3]; pH 2.5, 25° C., use life 0 days",2.0%
same,Percent (%) Butenedial,"[3]; pH 2.5, 25° C., use life 2 days",1.94%
same,Percent (%) Butenedial,"[3]; pH 2.5, 25° C., use life 4 days",1.84%
same,Percent (%) Butenedial,"[3]; pH 2.5, 25° C., use life 7 days",1.78%
same,Percent (%) Butenedial,"[3]; pH 2.5, 25° C., use life 10 days",1.7%
same,Percent (%) Butenedial,"[3]; pH 2.5, 25° C., use life 14 days",1.6%
same,Percent (%) Butenedial,"[3]; pH 3.5, 25° C., use life 0 days",2.0%
same,Percent (%) Butenedial,"[3]; pH 3.5, 25° C., use life 2 days",1.92%
same,Percent (%) Butenedial,"[3]; pH 3.5, 25° C., use life 4 days",1.76%
same,Percent (%) Butenedial,"[3]; pH 3.5, 25° C., use life 7 days",1.6%
same,Percent (%) Butenedial,"[3]; pH 3.5, 25° C., use life 10 days",1.5%
same,Percent (%) Butenedial,"[3]; pH 3.5, 25° C., use life 14 days",1.4%
same,Percent (%) Butenedial,"[3]; pH 4.5, 25° C., use life 0 days",2.0%
same,Percent (%) Butenedial,"[3]; pH 4.5, 25° C., use life 2 days",1.73%
same,Percent (%) Butenedial,"[3]; pH 4.5, 25° C., use life 4 days",1.5%
same,Percent (%) Butenedial,"[3]; pH 4.5, 25° C., use life 7 days",1.32%
same,Percent (%) Butenedial,"[3]; pH 4.5, 25° C., use life 10 days",1.0%
same,Percent (%) Butenedial,"[3]; pH 4.5, 25° C., use life 14 days",0.8%
same,solubility in water,Solubility in water,about 20 % w/w
